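Following 48 hours of exposure in 96-well plates, responses at five concentrations were used to interpolate endpoints linearly. The concentration for 50% growth inhibition is given as GI50.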 The source made the active and inactive calls. Cut-off read from the data, not from the text of the source: active = GI50 up to about 1.1 µM and inactive = higher.
Experiments:
Test in all cases: inhibition of tumour cell growth, NCI panel, 48 h
[1] = system: HL-60
[2] = system: SK-MEL-28
[3] = system: HCT-15
[4] = system: SK-OV-3
[5] = system: SF-268
[6] = system: U-251
[7] = system: OVCAR-3
[8] = system: MDA-MB-435
[9] = system: SF-295
[10] = system: OVCAR-8
[11] = system: SW-620
[12] = system: KM12
[13] = system: MCF7
[14] = system: UACC-62
[15] = system: NCI-H226
[16] = system: HOP-62
[17] = system: EKVX
[18] = system: OVCAR-5
[19] = system: UO-31
[20] = system: A549

| SMILES | GI50 [1] | GI50 [2] | GI50 [3] [µM] | GI50 [4] | GI50 [5] | GI50 [6] | GI50 [7] | GI50 [8] | GI50 [9] | GI50 [10] | GI50 [11] | GI50 [12] | GI50 [13] | GI50 [14] | GI50 [15] | GI50 [16] | GI50 [17] | GI50 [18] | GI50 [19] | GI50 [20] |
| --- | --- | --- | --- | --- | --- | --- | --- | --- | --- | --- | --- | --- | --- | --- | --- | --- | --- | --- | --- | --- |
| Fc1ccc(C(OCCN2CC3CC2CN3)c2ccc(F)cc2)cc1 (stereo unspecified) | 20.5 µM (inactive) | 21.8 µM (inactive) | 60.5 | > 100 µM (inactive) | > 100 µM (inactive) | 48.5 µM (inactive) | > 100 µM (inactive) | 23.1 µM (inactive) | 83.2 µM (inactive) | > 100 µM (inactive) | > 100 µM (inactive) | 39.6 µM (inactive) | 33.7 µM (inactive) | 19.5 µM (inactive) | 59 µM (inactive) | > 100 µM (inactive) |  |  |  |  |
| O=c1c(-c2ccccc2)c(SCCCN2CCN(c3cccc(Cl)c3)CC2)n(-c2ccccc2)c(=S)n1-c1ccccc1 | > 100 µM (inactive) | > 100 µM (inactive) | > 100 | > 100 µM (inactive) |  | > 100 µM (inactive) | > 100 µM (inactive) | 16.8 µM (inactive) | > 100 µM (inactive) | > 100 µM (inactive) | > 100 µM (inactive) | 46.5 µM (inactive) | > 100 µM (inactive) | > 100 µM (inactive) | > 100 µM (inactive) | > 100 µM (inactive) | > 100 µM (inactive) | > 100 µM (inactive) |  |  |
| O=C(/N=N/c1ccc(Br)cc1)NNc1ccc(Br)cc1 | 14 µM (inactive) | 26.3 µM (inactive) | 19.4 | 29 µM (inactive) |  | 17.5 µM (inactive) | 16.8 µM (inactive) | 19.8 µM (inactive) | 28.1 µM (inactive) | 29.7 µM (inactive) |  | 17.7 µM (inactive) | 18.2 µM (inactive) | 14.1 µM (inactive) | 20.5 µM (inactive) | 16.4 µM (inactive) |  | 23.3 µM (inactive) | 22.9 µM (inactive) |  |
| CCOC(=O)/C=C(\N=P(c1ccccc1)(c1ccccc1)c1ccccc1)C(F)(F)C(F)(F)C(F)(F)C(F)(F)C(F)(F)F | > 100 µM (inactive) | > 100 µM (inactive) | > 100 | > 100 µM (inactive) | > 100 µM (inactive) | > 100 µM (inactive) | > 100 µM (inactive) | > 100 µM (inactive) | > 100 µM (inactive) |  | > 100 µM (inactive) | > 100 µM (inactive) | > 100 µM (inactive) | > 100 µM (inactive) |  | > 100 µM (inactive) |  | > 100 µM (inactive) | > 100 µM (inactive) | > 100 µM (inactive) |
| CCOC(=O)CCC(NC(=O)OCc1ccccc1)C(=O)NC(CCC(=O)OCC)C(=O)NC(CCC(=O)OCC)C(=O)NC(CCC(=O)OCC)C(=O)NC(CCC(=O)OCC)C(=O)NC(CCC(=O)OCC)C(=O)NC(CCC(=O)OCC)C(=O)OCC (stereo unspecified) | > 100 µM (inactive) | > 100 µM (inactive) | > 100 |  | > 100 µM (inactive) | > 100 µM (inactive) | 86.9 µM (inactive) | > 100 µM (inactive) |  | > 100 µM (inactive) | > 100 µM (inactive) |  | > 100 µM (inactive) | > 100 µM (inactive) | > 100 µM (inactive) | > 100 µM (inactive) |  | > 100 µM (inactive) | 79.4 µM (inactive) | > 100 µM (inactive) |
| CC(C)c1cc2c(c(O)c1O)[C@@]1(C)CCCC(C)(C)C1=C(O)C2 | 1.34 µM (inactive) | 1.84 µM (inactive) | 1.68 |  | 1.5 µM (inactive) | 1.51 µM (inactive) | 1.38 µM (inactive) | 1.23 µM (inactive) | 1.53 µM (inactive) | 1.54 µM (inactive) | 1.46 µM (inactive) | 1.63 µM (inactive) | 0.982 µM (active) | 31.8 µM (inactive) | > 50 µM (inactive) | 2.78 µM (inactive) | 1.37 µM (inactive) | 1.83 µM (inactive) | 1.36 µM (inactive) | 1.66 µM (inactive) |
| CN(C)Cc1cc(/C=C/C(=O)c2ccc(Cl)c(Cl)c2)cc(CN(C)C)c1O | 3.9 µM (inactive) | 12.5 µM (inactive) |  | 21.8 µM (inactive) | 10.8 µM (inactive) |  | 10.3 µM (inactive) | 5.32 µM (inactive) | 20.2 µM (inactive) | 13.6 µM (inactive) | 12.9 µM (inactive) | 13.1 µM (inactive) | 12.9 µM (inactive) | 14.3 µM (inactive) |  | 15.5 µM (inactive) | 15.6 µM (inactive) | 12.5 µM (inactive) | 6.46 µM (inactive) | 15.9 µM (inactive) |
| CCCCN(CCCC)C1=Nc2ccccc2-n2c(nnc2C(=O)OCC)C1 | 15.6 µM (inactive) | 82.2 µM (inactive) |  | 68.4 µM (inactive) | 50.9 µM (inactive) |  | 37.2 µM (inactive) | 38.5 µM (inactive) | 44.7 µM (inactive) | 69.3 µM (inactive) | 58.3 µM (inactive) | 29.4 µM (inactive) | 37.2 µM (inactive) | 47.2 µM (inactive) | 50.6 µM (inactive) | 95.1 µM (inactive) | 71.9 µM (inactive) | > 100 µM (inactive) | 31.8 µM (inactive) | 33.9 µM (inactive) |

— ChEMBL document CHEMBL1201862, “PubChem BioAssay data set” (2004)
